Laboratory results reported in US8629273B2, “Diazinylpyrazolyl compounds” (Bayer Intellectual Property GmbH, priority 2009, dated 2014).

Key:
[1] = logP by HPLC on reversed-phase columns (C 18), EU Guideline 79/831 Annex V.A8; assay type: physicochemical
[2] = tested on: larvae of the mustard beetle (Phaedon cochleariae); assay: Phaedon test (PHAECO spray treatment); assay type: in vivo; conditions: 100 g/ha, after 7 days
In short: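 Chinese cabbage leaf discs were sprayed with compound formulated in acetone/dimethyl formamide plus alkylaryl polyglycol ether emulsifier, diluted in emulsifier-containing water to the desired concentration. After drying, discs were infested with mustard beetle larvae. Mortality (%) was scored after 7 days, where 100% means all larvae killed.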

[3] = tested on: Ctenocephalides felis; assay: Ctenocephalides felis oral (CTECFE); assay type: in vivo; conditions: 100 ppm in citrated cattle blood, after 2 days
In short: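 Twenty unfed adult fleas fed through parafilm on citrated cattle blood containing compound, diluted from a DMSO concentrate (10 mg per 0.5 ml). Kill % scored after 2 days (100% = all dead, 0% = none).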

[4] = tested on: Boophilus microplus; assay: Boophilus microplus test (BOOPMI injection); assay type: in vivo; conditions: 20 μg/animal, injected into the abdomen, after 7 days
In short: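 Compound dissolved in DMSO, diluted with water and injected into the tick abdomen; ticks kept in a climatized room. Fertile egg deposition assessed after 7 days; 100% means no tick laid fertile eggs.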

[5] = tested on: caterpillars of the army worm (Spodoptera frugiperda); assay: Spodoptera frugiperda test (SPODFR spray treatment); assay type: in vivo; conditions: 100 g/ha, after 7 days
In short: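 Maize leaf discs sprayed with compound in acetone/DMF with alkylaryl polyglycol ether emulsifier, diluted in emulsifier-containing water to the test concentration. Once dry, discs were infested with army worm caterpillars. Mortality scored after 7 days as % activity (100% = all caterpillars killed).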

[6] = tested on: Lucilia cuprina larvae; assay: Lucilia cuprina test (LUCICU); assay type: in vivo; conditions: 100 ppm, treated horse meat, after 2 days
In short: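 Horse meat treated with compound diluted in water from DMSO concentrate, then populated with larvae. Mortality scored after 2 days as percent kill, 100% meaning all larvae dead.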

[7] = tested on: adult Musca domestica; assay: Musca domestica test (MUSCDO); assay type: in vivo; conditions: 100 ppm, treated sponge
In short: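 Compound taken up in DMSO and diluted with water to test concentration, applied to a sponge in vessels then stocked with adult houseflies. Kill % scored after the set period; 100% = all flies dead, 0% = none.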

[8] = tested on: green peach affid (Myzus persicae); assay: Myzus test (MYZUPE spray treatment); assay type: in vivo; conditions: 100 g/ha, after 6 days
Procedure: Solvents: 78 parts by weight of acetone
• 1.5 parts by weight of dimethyl formamide Emulsifier: 0.5 part by weight of alkylaryl polyglycol ether
To produce a suitable preparation of active compound, 1 part by weight of active compound is mixed with the stated amounts of solvent and emulsifier, and the concentrate is diluted with emulsifier-containing water to the desired concentration.
Discs of Chinese cabbage leaves (Brassica pekinensis) infested by all stages of the green peach affid (Myzus persicae) are sprayed with an active compound preparation of the desired concentration.
After 6 days, the activity in % is determined. 100% means that all affids have been killed; 0% means that none of the affids have been killed.

[9] = tested on: greenhouse red spider mite (Tetranychus urticae); assay: Tetranychus test, OP resistant (TETRUR spray treatment); assay type: in vivo; conditions: 100 g/ha, after 6 days
Procedure: Solvents: 78.0 parts by weight of acetone • • 1.5 parts by weight of dimethyl formamide Emulsifier: 0.5 part by weight of alkylaryl polyglycol ether To produce a suitable preparation of active compound, 1 part by weight of active compound is mixed with the stated amounts of solvent and emulsifier, and the concentrate is diluted with emulsifier-containing water to the desired concentration. Discs of bean leaves (Phaseolus vulgaris) which are infested by all stages of the greenhouse red spider mite (Tetranychus urticae) are sprayed with an active compound preparation of the desired concentration. After 6 days, the activity in % is determined. 100% means that all spider mites have been killed; 0% means that none of the spider mites has been killed. The test was carried out and evaluated as described in Example B.7.

[10] = tested on: Boophilus microplus strain Parkhurst (SP-resistant); assay: Boophilus microplus test (DIP); assay type: in vivo; conditions: 100 ppm
Procedure: Test animals: adult fed females of the Boophilus microplus strain Parkhurst (SP-resistant)
Solvent: Dimethyl sulphoxide
10 mg of active compound are dissolved in 0.5 ml of dimethyl sulphoxide. To produce a suitable formulation, the active compound solution is diluted with water to the particular desired concentration. This active compound preparation is pipetted into tubes. 8-10 ticks are transferred into a further tube provided with holes. The tube is dipped into the active compound preparation, with all ticks being wetted completely. After the liquid has run off, the ticks are transferred to filter discs in plastic dishes and kept in a climatized room. After the desired period of time, the activity is checked for deposition of fertile eggs. Eggs whose fertility is not visible from the outside are kept in glass tubes in a climatized cupboard under the larvae have hatched. An activity of 100% means that no tick has laid fertile eggs.

[11] = ** LC-MS in the neutral range, pH 7.8, 0.001 molar aqueous ammonium bicarbonate and acetonitrile

| SMILES | logP [1, 11] | activity (beetle larvae killed) [2] | kill [3] | activity (no deposition of fertile eggs) [4] | activity (caterpillars killed) [5] | kill [6] | kill [7] | activity (affids killed) [8] | activity (spider mites killed) [9] | activity (no deposition of fertile eggs) [10] | logP ([1]; * LC-MS in the acidic range, pH 2.7, 0.1% aqueous formic acid and acetonitrile) |
| --- | --- | --- | --- | --- | --- | --- | --- | --- | --- | --- | --- |
| CCCCOC=Nc1c(-c2cc(Cl)cc(C(F)(F)F)c2)c(C(F)(F)F)nn1-c1ncccn1 [Example 1-15] | 5.24** | 100% | 100% | 100% | 100% | 100% | 80% | 80% | 100% |  |  |
| CCOC=Nc1c(-c2cc(Cl)c3c(c2)OCO3)c(C(F)(F)F)nn1-c1nccnc1OC [Example 2-18] | 4.03** | 100% | 100% | 100% | 100% | 100% |  | 100% | 100% | 100% |  |
| CCOC=Nc1c(-c2cc(Cl)cc(C(F)(F)F)c2)c(C(F)(F)F)nn1-c1ncccn1 [Example 1-11] | 4.58**; | 100% |  | 100% | 100% | 100% | 80% | 90% |  |  | 4.61* |
| CCOC=Nc1c(-c2cc(Cl)cc(C(F)(F)F)c2)c(C(F)(F)C(F)(F)F)nn1-c1ncccn1 [Example 1-43] | 5.02** | 100% |  |  | 100% |  |  | 100% | 100% |  |  |
| CCOC=Nc1c(-c2cc(Cl)cc(C(F)(F)F)c2)c(C(F)(F)C(F)F)nn1-c1ncccn1 [Example 1-34] | 4.43** | 100% | 80% | 100% | 100% | 100% | 100% | 90% | 100% |  |  |
